Key:
[1] = tested on: Candida albicans (strain CN 7996); assay: In vivo activity against Candida albicans infection in mice; design: species or system Swiss male albino mice (Charles River CD1); settings: cyclophosphamide 50 mg/kg i.v. 96 hours before infection, GM1 P 10 mg/kg s.c. 96 and 24 hours before infection, or both
Method: 53 Swiss male albino mice (Charles River CD1) weighing 23±1 g were randomly divided into […] groups of 10, 14, 14 and 15 animals each (groups 1 to 4 respectively). Group 1 animals were injected with saline as a control group; Group 2 were injected with cyclophosphamide 50 mg/kg (0.2 ml/mouse) intravenously 96 hours before infection; Group 3 with cyclophosphamide 50 mg/kg (0.2 ml/mouse) intravenously 96 hours before infection and with GM1 P 10 mg/kg (0.25 ml/10 g) subcutaneously at 96 and 24 hours before infection; and Group 4 with GM1 P 10 mg/kg (0.25 ml/10 g) subcutaneously 96 and 24 hours before infection. The mice were then injected intravenously with 0.225 ml/mouse of an 18 hour culture of Sabouraud glucose broth containing 1.204×10^7 Candida albicans cells/ml (strain CN 7996).

[2] = tested on: Plasmodium berghei; assay: In vivo activity against Plasmodium berghei protozoa in mice; design: species or system Swiss male albino mice (Charles River CD1); settings: GM1 P (Example 1) 5 mg/kg s.c. 24 and 2 hours before infection, pyrimethamine 1 mg/kg s.c. days 0, 1 and 2, or both
Method: 40 Swiss male albino mice (Charles River CD1) weighing 22±1 g were randomly divided into groups of 10 and injected intraperitoneally with 0.1 ml/10 g of citrated blood of 6-day parasitised mice which had been diluted 1:1000 (v/v) with saline to obtain 1.58×10^6 P. berghei I.S.S./ml. The control group (1) were injected with saline, group 2 with ganglioside GM1 P prepared by the method of Example 1 (5 mg/kg s.c. in saline), group 3 with the known anti-protozoal agent pyrimethamine (1 mg/kg s.c. in CMC 0.25% in water, w/v), and group 4 with both GM1 P and pyrimethamine at the doses stated above. The dose volume was 0.25 ml/10 g. The GM1 P was administered 24 hours and 2 hours before infection (Day 0) and the pyrimethamine on days 0,1 and 2.

SMILES	Number alive at Day 23 ([1]; Day 23)	Mean survival time [1] [days]	Mortality (%) Day 9 ([2]; Day 9) [%]	Mortality (%) Day 13 ([2]; Day 13) [%]
O=P1(N(CCCl)CCCl)NCCCO1 (stereo not shown) [cyclophosphamide]	0	1.21	–	–
CCc1nc(N)nc(N)c1-c1ccc(Cl)cc1 [pyrimethamine]	–	–	50	90

— patent publication US4728641A, “Ganglioside derivatives” (Burroughs Wellcome Co., priority 1983, dated 1988)
